Data from patent US20240398836A1, “EPOXY STEROIDS” (priority 2021, published 2024).

Columns and labels:
[1] = system: pancreatic carcinoma cells (DAN-G); assay: Apoptosis in pancreatic carcinoma cells; assay type: cell-based; conditions: comparable experiments
Experimental: In contrast to conventional glucocorticoids, the steroid WIL 071 can induce apoptosis also in pancreatic carcinoma cells.
The DNA fragmentation was measured by flow cytometry, see FIG. 11. The experiments were performed in triplicate. The error bars show the standard deviations of the measured values of three independent experiments.
The standard treatment for pancreatic carcinoma includes 5-fluorouracil.

Nalm-6 cells = assay: Half-maximal apoptosis induction (AC50) in Nalm-6 cells; assay type: cell-based; conditions: Homo sapiens; Nalm-6, 72 h, flow cytometry; read-out: Biological effect: half-maximal apoptosis induction (AC50)
Experimental: Apoptosis Induction in Nalm-6 Cells after Treatment with WIL-071 or Different Steroid Derivatives.
(§1) The cells were incubated in 6-well plates with 1.0·10^5 cells/mL in two milliliters of medium with the respective steroid derivative in different concentrations. The included solvent control (DMSO) served as a control, which was subtracted from all the other measured values, in order not to take into account the spontaneous apoptosis of the cells that takes place independently of the concentration of active ingredient. After 72 h, a modified cell cycle analysis was performed, in order to quantify the proportion of apoptotic cells by flow cytometry. For each concentration of the steroid, the respective mean values f standard deviations, n=3 (*: p<0.05 vs. DMSO, t test) were determined. Using the curve of the dose-effect relationship (steroid concentration−apoptosis induction) formed from these measured values, the steroid concentration at which apoptosis was triggered in 50% of the tested leukemia cells was read.

[2] = system: prednisolone-resistant leukemia cells; assay: Overcoming of prednisolone resistance; assay type: cell-based; conditions: 72 h
Experimental: as §1
Prednisolone resistance is said to be overcome if the induction of apoptosis in prednisolone-resistant leukemia cells is as high as it is in normal leukemia cells.

[3] = assay type: physicochemical
Experimental: All three substances are sparingly soluble in tested injection solutions, so that the maximal dose could not exceed 200 mg/kg.
(§2) For the MTD experiment, Wil-071 was dissolved in 100% DMSO, and then diluted 1:50 with a 20% (w/v) 2-hydroxypropyl-beta-cyclodextrin (HPβCD) solution. Thus, 200 μL of injection solution (per mouse) of a 40 mg/kg dose could be achieved. For 80, 100 and 150 mg/kg, the DMSO proportion was increased to up to 4% (v/v) in the final injection solution. In addition, ultrasound had to be employed, and the sample had to be heated at 60° C. for up to 45 min. 200 mg/kg was reached only as a milky suspension. […] Therefore, Wil-071 can be considered non-toxic up to 150 mg/kg. The final MTD could not be determined because of the insufficient solubility.
For 100 mg/kg of Wil-232, the end concentration of DMSO in the injection solution was 2%. In order to dissolve Wil-232, the sample also had to be treated with ultrasound, and heated at 60° C. The dose of 150 mg/kg was achieved only with 4% DMSO, and 200 mg/kg was achieved only as a suspension. […] In this case too, a final MTD cannot be determined because of insufficient solubility.
Using a DMSO stock and 20% HPβCD solution, a maximum of only 5 mg/ml was dissolved. […] In this case too, a final MTD cannot be determined because of insufficient solubility.

[4] = Distribution in serum, brain and liver after injection; assay type: in vivo, NOG-F (Taconic) mice
Experimental: Following the determination of the MTD, eight animals were again injected the MTD of the substances, and after 1, 2, 8 and 24 hours, 2 animals each were killed. For pharmacokinetics, the liver, brain and serum of the animals were shock-frosted in liquid nitrogen, and analyzed (see Example 15).
The samples obtained in Example 4 were examined for the contents of the substances. Since WIL-369 can be hydrolyzed to WIL-071, both WIL-369 and WIL-071 were determined in the samples. As far as these substances were detectable in the samples, this is represented in the Figures.

[5] = Tolerability (dose escalation, MTD) in an animal model; assay type: in vivo, NOG-F (Taconic) mice
Experimental: An incremental increase of dose of the three substances Wil-071, Wil-232 and Wil-369 was performed in 8-week-old female NOG-F (Taconic) mice. Different mice were administered one of up to seven different doses of the test substances. The start was on day 1 with the lowest dose of 10 mg/kg. […] All in all, if possible, the doses 10, 20, 40, 80, 100, 150 and 200 mg/kg are tested. Subsequently, the maximum tolerable dose (MTD) was administered to three more animals, and these were subsequently observed for one week, in order to be able to observe any developing symptoms. For this purpose, the animals were observed and weighed on a daily basis. The body weight is considered an indicator of the general condition of the animals.
as §2
For 100 mg/kg of Wil-232, the end concentration of DMSO in the injection solution was 2%. In order to dissolve Wil-232, the sample also had to be treated with ultrasound, and heated at 60° C. The dose of 150 mg/kg was achieved only with 4% DMSO, and 200 mg/kg was achieved only as a suspension. […] Otherwise, there were no signs of toxicity, so that the substance can be considered tolerable up to 150 mg/kg. In this case too, a final MTD cannot be determined because of insufficient solubility.
Using a DMSO stock and 20% HPβCD solution, a maximum of only 5 mg/ml was dissolved. A further increase could not be achieved even with more DMSO or HPβCD. Thus, above the dose of 40 mg/kg, a higher injection volume was injected in order to reach the corresponding dose. […] For the tolerability under the current solubility conditions, a value of […] is to be applied. This dose was injected into the 8 animals for pharmacokinetics. In this case too, a final MTD cannot be determined because of insufficient solubility.

| Compound | AC50 (Nalm-6 cells) [µM] | EC50 [2] [µM] | also measured |
| --- | --- | --- | --- |
| O=c1[nH]cc(F)c(=O)[nH]1 [5-fluorouracil] | – | – | apoptosis ([1]; at 30 μM): 24.9%; apoptosis ([1]; at 50 μM): 21.2% |
| O=C1[O][Pt]2([NH][C@@H]3CCCC[C@H]3[NH]2)[O]C1=O [Oxaliplatin] | – | – | apoptosis ([1]; at 50 μM): 14% |
| CC(C)CCC[C@@H](C)[C@H]1CC[C@H]2[C@@H]3[C@H]4OC[C@@]5(CC[C@H](OS(C)(=O)=O)C[C@]5(O)C4=O)[C@H]3CC[C@]12C [TAS-S389, (7β,19-epoxy-5α-hydroxy-6-on-cholestan-3β-yl) ester of methanesulfonic acid] | ~20 | ~30 | – |
| CC(C)CCC[C@@H](C)[C@H]1CC[C@H]2[C@@H]3[C@H]4OC[C@@]5(CC=CC[C@]5(O)C4=O)[C@H]3CC[C@]12C [TAS-S392, 7β,19-epoxy-5α-hydroxy-cholest-2-en-6-one] | ~46 | ~39 | – |
| CC(C)CCC[C@@H](C)[C@H]1CC[C@H]2[C@@H]3[C@H]4OC[C@@]5(CCCC[C@]5(O)C4=O)[C@H]3CC[C@]12C [TAS-S398, 7β,19-epoxy-5α-hydroxy-cholestan-6-one] | ~80 | ~67 | – |
| C=C1[C@@H]2OC[C@@]3(CC[C@H](O)C[C@]13O)[C@H]1CC[C@]3(C)[C@@H]([C@H](C)CCCC(C)C)CC[C@H]3[C@H]21 [TAS-S399, 7β,19-epoxy-6-methylen-cholest-3β,5α-diol] | 50 | ~75 | – |
| CC(C)CCC[C@@H](C)[C@H]1CC[C@H]2[C@@H]3[C@H]4OC[C@@]5(CC[C@@H](O)C[C@]5(O)C4=O)[C@H]3CC[C@]12C [TAS-S403, 3α,5α-dihydroxy-7β,19-epoxy-cholestan-6-one] | 100 | 20 | – |
| CC(=O)O[C@@H]1CC[C@@]23CO[C@@H](C(=O)[C@@]2(O)C1)[C@H]1[C@@H]2CC[C@H]([C@H](C)CCCC(C)C)[C@@]2(C)CC[C@@H]13 [TAS-S405, 3α-acetoxy-5α-hydroxy-7β,19-epoxy-cholestan-6-one] | 90 | ~20 | – |
| CC(C)CCC[C@@H](C)[C@H]1CC[C@H]2[C@@H]3[C@H]4OC[C@@]5(CC[C@H](O)C[C@]5(O)C4(C)O)[C@H]3CC[C@]12C (stereo partly drawn) [TAS-S406, 7β,19-epoxy-6α-methylcholestan-3β,5α,6β-triol] | 13 | ~17 | – |
| COC(=O)O[C@H]1CC[C@@]23CO[C@@H](C(=O)[C@@]2(O)C1)[C@H]1[C@@H]2CC[C@H]([C@H](C)CCCC(C)C)[C@@]2(C)CC[C@@H]13 [WIL357, 7β,19-epoxy-5α-hydroxy-6-on-cholestan-3β-yl-methyl carbonate] | > 50 | > 50 | – |
| CC(C)CCC[C@@H](C)[C@H]1CC[C@H]2[C@@H]3[C@H]4OC[C@@]5(CC[C@H](OC(=O)CNC(=O)OC(C)(C)C)C[C@]5(O)C4=O)[C@H]3CC[C@]12C [WIL360, N-Boc-glycin (7β,19-epoxy-5α-hydroxy-6-on-cholestan-3β-yl) ester] | > 20 | 20 | – |
| CC(C)CCC[C@@H](C)[C@H]1CC[C@H]2[C@@H]3[C@H]4OC[C@@]5(CC[C@H](OC(=O)CO)C[C@]5(O)C4=O)[C@H]3CC[C@]12C [WIL364, (7β,19-epoxy-5α-hydroxy-6-on-cholestan-3β-yl) ester of glycolic acid] | ~18 | ~17.5 | – |
| C=C(CC(=O)O[C@H]1CC[C@@]23CO[C@@H](C(=O)[C@@]2(O)C1)[C@H]1[C@@H]2CC[C@H]([C@H](C)CCCC(C)C)[C@@]2(C)CC[C@@H]13)C(=O)OC [WIL367, 4-(7β,19-epoxy-5α-hydroxy-6-on-cholestan-3β-yl)-1-methyl ester of itaconic acid] | ~8 | ~12.5 | – |
| COC(=O)/C=C/C(=O)O[C@H]1CC[C@@]23CO[C@@H](C(=O)[C@@]2(O)C1)[C@H]1[C@@H]2CC[C@H]([C@H](C)CCCC(C)C)[C@@]2(C)CC[C@@H]13 [WIL369, (7β,19-epoxy-5α-hydroxy-6-on-cholestan-3β-yl)methyl ester of fumaric acid] | ~3 | 5 | maximum dissolved concentration [3]: ≤ 5 mg/mL; solubility [3]: lowest solubility; distribution in the liver [4]: a quick degradation takes place in the liver; it is the only place where WIL-369 is found; mortality ([5]; 100 mg/kg dose group, one animal): found dead on day 3 after the injection; behaviour after injection ([5]; 100 mg/kg in twice as large injection volumes): the animals lay down on their side for some moments, but recovered quickly; tolerability under the current solubility conditions ([5]; mice, injection): 50 mg/kg |
| CC(=O)O[C@H]1CC[C@@]23CO[C@@H](C(=O)[C@@]2(O)C1)[C@H]1[C@@H]2CC[C@H]([C@H](C)CCCC(C)C)[C@@]2(C)CC[C@@H]13 [WIL-232, 3β-acetoxy-5α-hydroxy-7β,19-epoxy-cholestan-6-one] | 25 | 17.5 | outcome of injection of the 200 mg/kg suspension ([5]; 200 mg/kg as suspension, signs of pulmonary embolism in section): immediate death of the animal; dose up to which non-toxic / tolerable ([5]; injection into caudal vein, mice, final MTD not determinable because of solubility): up to 150 mg/kg |
| CC(C)CCC[C@@H](C)[C@H]1CC[C@H]2[C@@H]3[C@H]4OC[C@@]5(CCC(=O)C[C@]5(O)C4=O)[C@H]3CC[C@]12C [WIL-241, 5α-hydroxy-7β,19-epoxy-cholestane-3,6-dione] | 41 | – | – |
| CC(C)CCC[C@@H](C)[C@H]1CC[C@H]2[C@@H]3[C@H]4OC[C@@]5(CC[C@H](O)C[C@]5(OCc5ccccc5)C4=O)[C@H]3CC[C@]12C [WIL-242b, 5α-benzyloxy-3β-hydroxy-7β,19-epoxy-cholestan-6-one] | 37 | 40 | – |
| CC(C)CCC[C@@H](C)[C@H]1CC[C@H]2[C@@H]3[C@H]4OC[C@@]5(CCC(=O)C=C5C4=O)[C@H]3CC[C@]12C [WIL-270, 7β,19-epoxy-cholest-4-en-3,6-dione] | 20 | 18 | – |
| CC[C@H](CC[C@@H](C)[C@H]1CC[C@H]2[C@@H]3[C@H]4OC[C@@]5(CC[C@H](OC(C)=O)C[C@]5(O)C4=O)[C@H]3CC[C@]12C)C(C)C [WIL-DK-08, 3β-acetoxy-5α-hydroxy-7β,19-epoxy-stigmastan-6-one] | 50 | ~40 | – |
| CC[C@H](CC[C@@H](C)[C@H]1CC[C@H]2[C@@H]3[C@H]4OC[C@@]5(CC[C@H](O)C[C@]5(O)C4=O)[C@H]3CC[C@]12C)C(C)C [WIL-DK-09, 3β,5α-dihydroxy-7β,19-epoxy-stigmastan-6-one] | ~15 | ~38 | – |
